Results published in ChEMBL document CHEMBL4354827, “Discovery of Novel, Potent, Brain-Permeable, and Orally Efficacious Positive Allosteric Modulator of α7 Nicotinic Acetylcholine Receptor [4-(5-(4-Chlorophenyl)-4-methyl-2-propionylthiophen-3-yl)benzenesulfonamide]: Structure-Activity Relationship and Preclinical Characterization” (J Med Chem, 2020).

Columns and labels:
[1] = system: Rattus norvegicus; experiment: Memory enhancement effect in time-delay induced Wistar rat model of amnesia assessed as exploration time for object2 in acquisition trial at 0.15 mg/kg, po for 7 days and measured on day 8 by novel object recognition test (reference value: 11.76 sec); format: functional
[2] = target: T1, Cytochrome P450 2B6 (Homo sapiens, UniProt P20813); experiment: Inhibition of CYP2B6 (unknown origin) up to 10 uM; format: ADME
T1 sequence (P20813 whole entry): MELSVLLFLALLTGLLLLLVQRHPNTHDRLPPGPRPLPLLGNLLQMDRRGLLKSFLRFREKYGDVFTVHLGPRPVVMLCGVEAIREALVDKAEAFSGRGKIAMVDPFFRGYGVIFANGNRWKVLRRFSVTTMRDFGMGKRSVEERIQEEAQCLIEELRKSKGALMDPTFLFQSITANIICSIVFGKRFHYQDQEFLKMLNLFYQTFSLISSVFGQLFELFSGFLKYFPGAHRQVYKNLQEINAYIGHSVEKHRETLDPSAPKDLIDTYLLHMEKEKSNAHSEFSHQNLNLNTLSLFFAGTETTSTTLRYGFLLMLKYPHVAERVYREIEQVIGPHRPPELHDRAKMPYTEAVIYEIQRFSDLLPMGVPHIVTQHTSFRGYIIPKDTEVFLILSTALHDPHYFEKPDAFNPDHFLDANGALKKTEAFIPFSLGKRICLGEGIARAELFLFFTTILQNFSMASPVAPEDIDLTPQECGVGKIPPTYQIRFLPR

[3] = Drug concentration in Wistar rat plasma at 10 mg/kg, po after 1 hr by LC-MS/MS analysis; format: ADME, organism-based
[4] = AUCt in Wistar rat plasma at 10 mg/kg, po after 1 to 144 hrs by LC-MS/MS analysis; format: ADME, organism-based
[5] = Protein binding in human plasma at 5 uM incubated for 16 hrs under shaking condition by LC/MS/MS based rapid equilibrium dialysis method; format: ADME, cell-free; settings: read-out: PPB (converted)
[6] = system: Rattus norvegicus; experiment: Memory enhancement effect in time-delay induced Wistar rat model of amnesia assessed as increase in novel object discrimination index at 1 mg/kg, po administered as single dose and measured on day 9 by novel object recognition test (reference value: 0.03); format: functional
[7] = Unbound brain-to-plasma concentration ratio in Wistar rat at 10 mg/kg, po after 4 hrs by LC-MS/MS analysis; format: ADME, organism-based; settings: read-out: K(p,uu,brain)
[8] = system: Rattus norvegicus; experiment: Memory enhancement effect in time-delay induced Wistar rat model of amnesia assessed as increase in novel object discrimination at 3 mg/kg, po administered as single dose after acquisition trial by novel object recognition test (reference value: 0.08); format: functional
[9] = Clearance in Wistar rat at 1 mg/kg, iv after 0.083 to 144 hrs by LC-MS/MS analysis; format: ADME, organism-based; settings: in vivo
[10] = Drug metabolism in monkey liver microsomes assessed as metabolic rate at 1 uM preincubated for 5 mins followed by NADPH addition after 30 mins by LC-MS/MS analysis; format: ADME, Macaca mulatta, Microsome; settings: rhesus monkey, 0.5 h
[11] = system: Rattus norvegicus; experiment: Improvement in social recognition scopolamine-induced Sprague-Dawley rat model of amnesia assessed as reduction in recognition index at 0.50 mg/kg, po for 7 days measured after 24 hrs (reference value: 0.93); format: functional
[12] = system: Rattus norvegicus; experiment: Memory enhancement effect in time-delay induced Wistar rat model of amnesia assessed as exploration time for familiar object in retention trial at 3 mg/kg, po administered as single dose and measured on day 9 by novel object recognition test (reference value: 13.05 sec); format: functional
[13] = Ratio of Cmax in brain to plasma in Wistar rat at 10 mg/kg, po after 144 hrs by LC-MS/MS analysis; format: ADME, organism-based
[14] = Drug concentration in Wistar rat brain at 10 mg/kg, po after 8 hrs by LC-MS/MS analysis; format: ADME, organism-based; settings: read-out: Drug uptake
[15] = target: Neuronal acetylcholine receptor subunit alpha-7 (Homo sapiens, UniProt P36544); experiment: Positive allosteric modulatory activity against alpha7 nAChR in human IMR-32 cells assessed as potentiation of PNU-282987-induced Ca2+ […] at by FLIPR assay; format: cell-based
[16] = system: Rattus norvegicus; experiment: Memory enhancement effect in time-delay induced Wistar rat model of amnesia assessed as exploration time for object1 at 3 mg/kg, po administered as single dose after acquisition trial by novel object recognition test (reference value: 19.09 sec); format: functional
[17] = Brain to plasma permeability coefficient, Kp in Wistar rat at 10 mg/kg, po after 48 hrs by LC-MS/MS analysis; format: ADME, organism-based
[18] = Cmax in Wistar rat brain at 10 mg/kg, po after 1 to 144 hrs by LC-MS/MS analysis; format: ADME, organism-based; set-up: dose 10 mg/kg, route oral
[19] = Elimination half life in human at 7.5 to 100 mg; format: ADME; settings: read-out: beta t1/2
[20] = Drug level in Wistar rat plasma at 0.05 mg/kg, po; format: ADME, organism-based; settings: in vivo
[21] = system: Rattus norvegicus; experiment: Memory enhancement effect in scopolamine-induced Wistar rat model of amnesia assessed as increase in exploration time for novel object in retention trial at 0.05 mg/kg, po administered as single dose and measured on day 9 by novel object recognition test (reference value: 12.09 sec); format: functional
[22] = system: Rattus norvegicus; experiment: Memory enhancement effect in time-delay induced Wistar rat model of amnesia assessed as increase in novel object discrimination index at 3 mg/kg, po administered as single dose and measured on day 9 by novel object recognition test (reference value: 0.03); format: functional
[23] = system: Rattus norvegicus; experiment: Improvement in social recognition time delay-induced Sprague-Dawley rat model of amnesia assessed as increase in reduction in social investigation time at 1 mg/kg, po administered as single dose prior to 1 hr training and measured after 30 mins (reference value: 0.39%); format: functional; set-up: scale not given: the % may be the effect or the level left
[24] = Clearance in BALB/c mouse at 1 mg/kg, iv after 0.083 to 144 hrs by LC-MS/MS analysis; format: ADME, organism-based; settings: in vivo
[25] = Drug level in Wistar rat plasma at 0.15 mg/kg, po; format: ADME, organism-based; settings: in vivo
[26] = system: Rattus norvegicus; experiment: Memory enhancement effect in time-delay induced Wistar rat model of amnesia assessed as exploration time for familiar object at 1 mg/kg, po administered as single dose after acquisition trial by novel object recognition test (reference value: 10.6 sec); format: functional
[27] = Half life in Beagle dog at 1 mg/kg, iv after 0.083 to 144 hrs by LC-MS/MS analysis; format: ADME, organism-based, Canis lupus familiaris; settings: in vivo
[28] = Drug level in scopolamine-induced Sprague-Dawley rat plasma at 0.05 mg/kg, po for 7 days; format: ADME, organism-based
[29] = system: Rattus norvegicus; experiment: Memory enhancement effect in scopolamine-induced Wistar rat model of amnesia assessed as increase in exploration time for novel object in retention trial at 0.5 mg/kg, po administered as single dose and measured on day 9 by novel object recognition test (reference value: 12.09 sec); format: functional
[30] = Brain to plasma permeability coefficient, Kp in Wistar rat at 10 mg/kg, po after 8 hrs by LC-MS/MS analysis; format: ADME, organism-based
[31] = Protein binding in rat plasma at 5 uM incubated for 16 hrs under shaking condition by LC/MS/MS based rapid equilibrium dialysis method; format: ADME, cell-free; settings: read-out: PPB (converted)

Sequence of Neuronal acetylcholine receptor subunit alpha-7 (P36544 whole entry): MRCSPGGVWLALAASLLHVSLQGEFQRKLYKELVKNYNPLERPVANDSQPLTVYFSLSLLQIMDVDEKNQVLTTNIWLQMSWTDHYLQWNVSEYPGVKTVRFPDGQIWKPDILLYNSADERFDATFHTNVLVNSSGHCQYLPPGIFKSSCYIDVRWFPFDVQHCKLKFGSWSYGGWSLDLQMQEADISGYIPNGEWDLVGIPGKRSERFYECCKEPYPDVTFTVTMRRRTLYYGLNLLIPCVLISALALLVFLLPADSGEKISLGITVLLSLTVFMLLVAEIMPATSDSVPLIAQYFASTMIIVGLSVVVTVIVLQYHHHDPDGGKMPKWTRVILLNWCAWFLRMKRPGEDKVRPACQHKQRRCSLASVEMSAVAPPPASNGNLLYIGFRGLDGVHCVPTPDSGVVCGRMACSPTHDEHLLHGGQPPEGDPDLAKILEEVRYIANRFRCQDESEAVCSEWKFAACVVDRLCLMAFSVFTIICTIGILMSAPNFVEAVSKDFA

**Q.** Which Time [1] does the source give for `CCC(=O)c1sc(-c2ccc(Cl)cc2)c(C)c1-c1ccc(S(N)(=O)=O)cc1` here?
**A.** 13.58 s

**Q.** What about the “inhibition (INH)” value [2] of the same compound?
**A.** Not Active

**Q.** What about the concentration at 1 h [3] of the same compound?
**A.** 870 nM

**Q.** And the AUC(0-t) [4]?
**A.** 35 µM·h

**Q.** And the fraction unbound at 16 h, 5 µM [5]?
**A.** 0.0015

**Q.** And the Activity_index [6]?
**A.** 0.44

**Q.** What about the Kp uu at 4 h [7] of the same compound?
**A.** 1.29

**Q.** What about the Activity_index [8] of the same compound?
**A.** 0.5

**Q.** And the clearance [9]?
**A.** 1.3 mL/min/kg

**Q.** And the Drug metabolism [10]?
**A.** 0.03 nmol/min/mg

**Q.** What about the Activity_index [11] of the same compound?
**A.** 0.75

**Q.** What about the Time [12] of the same compound?
**A.** 8.92 s

**Q.** What about the Kp at 144 h [13] of the same compound?
**A.** 10

**Q.** And the concentration at 8 h [14]?
**A.** 6390 nM

**Q.** And the EC50 [15]?
**A.** 324 nM

**Q.** And the Time [16]?
**A.** 17.81 s

**Q.** What about the Kp at 48 h [17] of the same compound?
**A.** 9.52

**Q.** What about the Cmax [18] of the same compound?
**A.** 9200 nM

**Q.** And the half-life [19]?
**A.** 15.5 to 77 h

**Q.** And the concentration [20]?
**A.** 40 nM

**Q.** What about the Time [21] of the same compound?
**A.** 14.65 s

**Q.** And the Activity_index [22]?
**A.** 0.48

**Q.** And the Activity [23]?
**A.** 31.73%

**Q.** And the clearance [24]?
**A.** 3.6 mL/min/kg

**Q.** What about the concentration [25] of the same compound?
**A.** 70 nM

**Q.** What about the Time [26] of the same compound?
**A.** 11.94 s

**Q.** And the half-life [27]?
**A.** 88 h

**Q.** What about the concentration at 168 h [28] of the same compound?
**A.** 60 nM

**Q.** And the Time [29]?
**A.** 15.06 s

**Q.** And the Kp at 8 h [30]?
**A.** 7.7

**Q.** And the fraction unbound at 16 h, 5 µM [31]?
**A.** 0.0058
